Experimental data as given in PMC10308680 (Journal of Biomedical Science, 2023).
Where “and” joins values, the source holds several entries; their conditions need not be identical. Identical values can stand only once.

How the values were obtained:
[1] = tested on: CD28/B7-2 (cell-surface B7-2); format: cell-based, human
[2] = tested on: B7-2/CD28; format: cell-based, human

## ASMDYPVL [p2TAsc]
[1]
  inhibition of binding of soluble CD28 to cell-surface B7-2: abrogated the ability of p2TA to inhibit binding of CD28 to cell-surface B7-2
[2]
  Per cent doubly labeled cells (B7-2/CD28): 8.4% and 9.0% and 8.6%
  attenuation of intercellular B7-2/CD28 engagement (in words): fails to attenuate intercellular B7-2/CD28 engagement
